Results as given in ChEMBL document CHEMBL5113425, “Preparation of a multifunctional photoactivated prodrug on a streptavidin scaffold bearing a DNA aptamer” (Bioorg Med Chem Lett, 2022).
Activity calls are given as the source filed them. The rule behind the calls is not given here.

Columns and labels:
SK-BR-3 [1] = assay: Cytotoxicity in human SK-BR-3 cells assessed as reduction in cell viability at 50 to 500 nM incubated for 72 hrs in absence of 15 mins photoirradiation at 365 nm by WST assay; format: toxicity, cell-based; settings: sk-br-3, 72 h, 0.5 µM, dose 50-500 nM
SK-BR-3 [2] = assay: Cytotoxicity in human SK-BR-3 cells assessed as reduction in cell viability at 50 to 500 nM incubated for 72 hrs in presence of 15 mins photoirradiation at 365 nm by WST assay; format: functional, cell-based; settings: dose 50-500 nM

**Q.** Which results are given for CC[C@@]1(OC(=O)CCCCNC(=O)OC(C)c2cc(OC)c(OCCCC(=O)NCCN3C(=O)CC(NCCNC(=O)CCCC[C@@H]4SC[C@H]5NC(=O)N[C@@H]45)C3=O)cc2[N+](=O)[O-])C(=O)OCc2c1cc1n(c2=O)Cc2cc3ccccc3nc2-1 (some centres not stated)?
**A.** Activity (SK-BR-3 [1]): Non-Toxic; Activity (SK-BR-3 [2]): Active
